What follows are compounds tested against T1, Kv1.5 channels from humans (Homo sapiens, UniProt P22460) (assay: Kv1.5 currents in Xenopus oocytes, 2-microelectrode voltage clamp). Settings: human Kv1.5 expressed in Xenopus laevis oocytes; voltage jumps to 0 mV and 40 mV lasting 500 ms; room temperature; Hill equation.
T1 construct: expressed in transfected cells; host or cells: Xenopus laevis oocytes injected with in vitro synthesized RNA
T1 sequence (P22460 whole entry): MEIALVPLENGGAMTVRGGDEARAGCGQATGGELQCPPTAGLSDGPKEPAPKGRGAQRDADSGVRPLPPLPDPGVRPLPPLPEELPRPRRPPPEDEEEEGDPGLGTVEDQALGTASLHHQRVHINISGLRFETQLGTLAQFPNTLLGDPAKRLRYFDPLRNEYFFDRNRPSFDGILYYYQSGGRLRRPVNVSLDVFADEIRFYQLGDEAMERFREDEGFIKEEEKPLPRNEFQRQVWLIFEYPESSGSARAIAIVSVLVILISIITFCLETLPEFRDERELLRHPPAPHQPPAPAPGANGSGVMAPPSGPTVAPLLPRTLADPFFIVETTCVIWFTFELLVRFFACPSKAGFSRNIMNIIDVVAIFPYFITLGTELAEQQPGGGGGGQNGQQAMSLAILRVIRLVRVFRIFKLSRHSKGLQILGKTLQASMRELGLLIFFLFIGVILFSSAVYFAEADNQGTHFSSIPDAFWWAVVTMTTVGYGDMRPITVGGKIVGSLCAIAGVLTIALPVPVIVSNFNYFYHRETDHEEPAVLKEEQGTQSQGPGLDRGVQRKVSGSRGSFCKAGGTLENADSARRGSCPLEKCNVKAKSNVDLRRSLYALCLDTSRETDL
Assay type: cell-based
Experimental: Kv1.5 channels from humans were expressed in Xenopus oocytes. To this end, oocytes from Xenopus laevis were first isolated and defolliculated. RNA coding for Kv1.5 synthesized in vitro was then injected into these oocytes. After a Kv1.5 protein expression for 1-7 days, Kv1.5 currents were measured on the oocytes using the 2-microelectrode voltage clamp technique. The Kv1.5 channels were in this case as a rule activated using voltage jumps to 0 mV and 40 mV lasting 500 ms. The bath was rinsed using a solution of the following composition: NaCl 96 mM, KCl 2 mM, CaCl2 1.8 mM, MgCl2 1 mM, HEPES 5 mM (titrated with NaOH to pH 7.4). These experiments were carried out at room temperature. The following were employed for data acquisition and analysis: Gene clamp amplifier (Axon Instruments, Foster City, USA) and MacLab D/A converter and software (ADinstruments, Castle Hill, Australia). The substances according to the invention were tested by adding them to the bath solution in different concentrations. The effects of the substances were calculated as the percentage inhibition of the Kv1.5 control current which was obtained when no substance was added to the solution. The data were then extrapolated using the Hill equation in order to determine the inhibition concentrations IC50 for the respective substances.
`CC(C)C[C@H](NC(=O)c1nccnc1-c1ccccc1CNC(=O)OC(C)(C)C)C(N)=O` [Example 11] was tested, and the IC50 was “inactive”.
With `COc1ccc(CC(=O)NCc2ccccc2-c2nccnc2C(=O)NCCc2ccccn2)cc1` [Example 53] the IC50 was “inactive”.

Same assay, conditions: human Kv1.5 expressed in Xenopus laevis oocytes; voltage jumps to 0 mV and 40 mV lasting 500 ms; room temperature; Hill equation; read-out: IC50
In the case of `CC(C)CCNC(=O)c1ccncc1-c1ccccc1CNC(=O)OC(C)(C)C` [Example 3], the IC50 is reported as < 100 µM.
With `CC(C)(C)OC(=O)NCc1ccccc1-c1cnccc1C(=O)NCc1ccc(F)cc1F` [Example 4] the IC50 was < 100 µM.
`CC(C)CCNC(=O)c1cccnc1-c1ccccc1CNC(=O)OC(C)(C)C` [Example 5] was tested, and the IC50 was < 100 µM.
With `CC(C)(C)OC(=O)NCc1ccccc1-c1ncccc1C(=O)NCc1ccc(F)cc1F` [Example 6] the IC50 was < 100 µM.
With `CC(C)CCNC(=O)c1nccnc1-c1ccccc1CNC(=O)OC(C)(C)C` [Example 7] the IC50 was < 100 µM.
In the case of `CC(C)(C)OC(=O)NCc1ccccc1-c1nccnc1C(=O)NCc1ccc(F)cc1F` [Example 8], the IC50 is reported as < 100 µM.
For `CC(C)CCNC(=O)c1ccccc1-c1ccncc1CNC(=O)OC(C)(C)C` [Example 9], the IC50 was < 100 µM.
With `COc1ccc(NC(=O)c2nccnc2-c2ccccc2CNC(=O)OC(C)(C)C)cc1` [Example 12] the IC50 was < 100 µM.
`CC(C)CCNC(=O)c1ncccc1-c1ccccc1CNC(=O)OCc1ccccc1` [Example 18, Benzyl {2-[2-(3-methylbutylcarbamoyl)pyridin-3-yl]benzyl}carbamate] gave an IC50 of 2.6 µM.
`C[C@H](OC(=O)NCc1ccccc1-c1cccnc1C(=O)NCCc1ccccn1)c1ccccc1` [Example 19] showed an IC50 of 0.6 µM.
Work on `CC(C)C[C@H](NC(=O)c1ncccc1-c1ccccc1CNC(=O)O[C@@H](C)c1ccccc1)C(N)=O` [Example 20] yielded an IC50 of 1.2 µM.
Work on `COc1ccc(NC(=O)c2ncccc2-c2ccccc2CNC(=O)O[C@@H](C)c2ccccc2)cc1` [Example 21] yielded an IC50 of 2 µM.
For `C[C@H](OC(=O)NCc1ccccc1-c1cccnc1C(=O)NCC1CC1)c1ccccc1` [Example 23], the IC50 was 0.4 µM.
With `CC(C)CCNC(=O)c1ccncc1-c1ccccc1CNC(=O)OCc1ccccc1` [Example 26] the IC50 was < 100 µM.
`CC(C)CCNC(=O)c1cccnc1-c1ccccc1CNC(=O)OCc1ccccc1` [Example 28] gave an IC50 of 9 µM.
`O=C(NCc1ccccc1-c1ncccc1C(=O)NCc1ccc(F)cc1F)OCc1ccccc1` [Example 29] gave an IC50 of 7.6 µM.
`CC(C)C[C@H](NC(=O)c1nccnc1-c1ccccc1CNC(=O)O[C@@H](C)c1ccccc1)C(N)=O` [Example 31] was tested, and the IC50 was < 100 µM.
In the case of `C[C@H](OC(=O)NCc1cnccc1-c1ccccc1C(=O)NCC1CC1)c1ccccc1` [Example 33], the IC50 is reported as 1.7 µM.
`C[C@H](OC(=O)NCc1cnccc1-c1ccccc1C(=O)NCCc1cccnc1)c1ccccc1` [Example 34] was tested, and the IC50 was 4.7 µM.
In the case of `C[C@H](CC(=O)NCc1ccccc1-c1cccnc1C(=O)NCC1CC1)c1ccccc1` [Example 35, 3-{2-(R)-[(3-Phenylbutyrylamino)methyl]phenyl}pyridine-2-carboxylate cyclopropylmethylamide], the IC50 is reported as 0.4 µM.
In the case of `COc1ccc(CC(=O)NCc2ccccc2-c2cccnc2C(=O)NCCc2ccccn2)cc1` [Example 36], the IC50 is reported as < 100 µM.
In the case of `CCOc1ccc(C(=O)NCc2ccccc2-c2cccnc2C(=O)NCCc2ccccn2)cc1` [Example 37], the IC50 is reported as < 100 µM.
`COc1ccc(CCC(=O)NCc2ccccc2-c2cccnc2C(=O)NCCc2ccccn2)cc1` [Example 38] gave an IC50 of 5.6 µM.
With `COc1ccc(CC(=O)NCc2ccccc2-c2cccnc2C(=O)N[C@@H](CC(C)C)C(N)=O)cc1` [Example 39] the IC50 was < 100 µM.
With `CCOc1ccc(C(=O)NCc2ccccc2-c2cccnc2C(=O)N[C@@H](CC(C)C)C(N)=O)cc1` [Example 40] the IC50 was < 100 µM.
With `COc1ccc(CCC(=O)NCc2ccccc2-c2cccnc2C(=O)N[C@@H](CC(C)C)C(N)=O)cc1` [Example 41] the IC50 was < 100 µM.
In the case of `COc1ccc(CC(=O)NCc2ccccc2-c2cccnc2C(=O)Nc2ccc(OC)cc2)cc1` [Example 42], the IC50 is reported as < 100 µM.
With `CCOc1ccc(C(=O)NCc2ccccc2-c2cccnc2C(=O)Nc2ccc(OC)cc2)cc1` [Example 43] the IC50 was < 100 µM.
In the case of `COc1ccc(CCC(=O)NCc2ccccc2-c2cccnc2C(=O)Nc2ccc(OC)cc2)cc1` [Example 44], the IC50 is reported as 6.7 µM.
For `CC(CC(=O)NCc1ccccc1-c1cccnc1C(=O)NCCc1ccccn1)c1ccc(F)cc1` (centres unmarked) [Example 45], the IC50 was 0.5 µM.
In the case of `C[C@H](CC(=O)NCc1ccccc1-c1cccnc1C(=O)NCc1cccnc1)c1ccccc1` [Example 46], the IC50 is reported as 2.7 µM.
`CC(CC(=O)NCc1ccccc1-c1cccnc1C(=O)NCC1CC1)c1ccc(F)cc1` (centres unmarked) [Example 47] showed an IC50 of 3.1 µM.
With `Cc1onc(-c2ccccc2)c1C(=O)NCc1ccccc1-c1cccnc1C(=O)NCC1CC1` [Example 48] the IC50 was 2.4 µM.
With `C[C@H](CC(=O)NCc1ccccc1-c1cccnc1C(=O)NCCc1ccccn1)c1ccccc1` [Example 49] the IC50 was 0.9 µM.
With `COc1ccc(CC(=O)NCc2ccccc2-c2ncccc2C(=O)NCc2ccc(F)cc2F)cc1` [Example 51] the IC50 was < 100 µM.
`CC(CC(=O)NCc1cnccc1-c1ccccc1C(=O)NCC1CC1)c1ccc(F)cc1` (centres unmarked) [Example 54] was tested, and the IC50 was < 100 µM.
`O=C(Cc1ccc(OC(F)(F)F)cc1)NCc1cnccc1-c1ccccc1C(=O)NCC1CC1` [Example 55] gave an IC50 of 3.8 µM.
For `O=C(Cc1ccc(OC(F)(F)F)cc1)NCc1cnccc1-c1ccccc1C(=O)NCCc1cccnc1` [Example 56], the IC50 was 6.1 µM.
In the case of `C[C@H](OC(=O)NCc1ccccc1-c1cccnc1C(=O)NCCc1cccnc1)c1ccccc1` [Example 58], the IC50 is reported as 0.7 µM.
With `CC(CC(=O)NCc1ccccc1-c1cccnc1C(=O)NCCc1cccnc1)c1ccc(F)cc1` (centres unmarked) [Example 59] the IC50 was 3.2 µM.
With `O=C(CCc1cccc(OC(F)(F)F)c1)NCc1ccccc1-c1cccnc1C(=O)NCCc1cccnc1` [Example 60] the IC50 was 3.1 µM.
`CC(C)(C(=O)NCc1ccccc1-c1cccnc1C(=O)NCC1CC1)c1ccc(Cl)cc1` [Example 61] was tested, and the IC50 was 1.7 µM.
Compound `O=C(CCc1cccc(OC(F)(F)F)c1)NCc1ccccc1-c1cccnc1C(=O)NCC1CC1` [Example 62] has an IC50 of 1.8 µM.
Work on `O=C(CCc1cccc(OC(F)(F)F)c1)NCc1ccccc1-c1cccnc1C(=O)NCCc1ccccn1` [Example 63] yielded an IC50 of 1.8 µM.
Work on `CC(C)(C(=O)NCc1ccccc1-c1cccnc1C(=O)NCCc1ccccn1)c1ccc(Cl)cc1` [Example 64] yielded an IC50 of 0.9 µM.
`C[C@@H](O)CNC(=O)c1ncccc1-c1ccccc1CNC(=O)C(C)(C)c1ccc(Cl)cc1` [Example 65] was tested, and the IC50 was < 100 µM.
For `C[C@@H](O)CNC(=O)c1ncccc1-c1ccccc1CNC(=O)CCc1cccc(OC(F)(F)F)c1` [Example 66], the IC50 was < 100 µM.
`C[C@H](CC(=O)NCc1ccccc1-c1cccnc1C(=O)NC[C@@H](C)O)c1ccccc1` [Example 67] was tested, and the IC50 was < 100 µM.

— patent publication US6794377B2, “Ortho, ortho-substituted nitrogen-containing bisaryl compounds, processes for their preparation, their use as medicaments, and pharmaceutical preparation comprising them” (Aventis Pharma Deutschland GmbH, priority 2000, dated 2004)
